Data from patent US20230263822A1, “MODULATION OF FACTOR 11 EXPRESSION” (Ionis Pharmaceuticals, Inc., priority 2008, published 2023).
Like-named read-outs stand apart in the source and are kept apart here. Strand notation (5' to 3'): a small letter for the sugar, then the base; units joined by * are phosphorothioate-linked, units joined directly phosphodiester-linked; [ ] holds rarer units or linkages, { } end groups; capitals alone tell only the bases. e = 2'-O-(2-methoxyethyl) (MOE); [5mC] = 5-methylcytosine; d = 2'-deoxy (DNA)

Tests used:
mouse Factor 11 mRNA = experiment: Cross-reactive antisense inhibition of murine Factor 11 in primary mouse hepatocytes, 100 nM (Example 9); format: cell-based; conditions: ~24 hours
Protocol: Antisense oligonucleotides targeted to a murine factor 11 nucleic acid were tested for their effects on Factor 11 mRNA in vitro. Cultured primary mouse hepatocytes at a density of 10,000 cells per well were treated with 100 nM antisense oligonucleotide. After a treatment period of approximately 24 hours, RNA was isolated from the cells and mouse Factor 11 mRNA levels were measured by quantitative real-time PCR. Factor 11 mRNA levels were adjusted according to total RNA content, as measured by RIBOGREEN. Results are presented as percent inhibition of Factor 11, relative to untreated control cells.
The chimeric antisense oligonucleotides in Tables 16 were designed as 5-10-5 MOE gapmers. The gapmers are 20 nucleotides in length, wherein the central gap segment is comprised of 10 2′-deoxynucleotides and is flanked on both sides (in the 5′ and 3′ directions) by wings comprising 5 nucleotides each. Each nucleotide in the 5′ wing segment and each nucleotide in the 3′ wing segment has a 2′-MOE modification. The internucleoside linkages throughout each gapmer are phosphorothioate (P=S) linkages. All cytidine residues throughout each gapmer are 5-methylcytidines. “Mouse target start site” indicates the 5′-most nucleotide to which the gapmer is targeted. “Mouse target stop site” indicates the 3′-most nucleotide to which the gapmer is targeted. All the mouse oligonucleotides listed show cross-reactivity between the mouse Factor 11 mRNA (GENBANK Accession No. NM_028066.1), incorporated herein as SEQ ID NO: 6 and the human Factor 11 mRNA (GENBANK Accession No. NM_000128.3), incorporated herein as SEQ ID NO: 1. “Human Target Start Site” indicates the 5′-most nucleotide in the human mRNA (GENBANK Accession No. NM_000128.3) to which the antisense oligonucleotide is targeted. “Human Target Stop Site” indicates the 3′-most nucleotide in the human mRNA (GENBANK Accession No. NM_000128.3) to which the antisense oligonucleotide is targeted. “Number of mismatches” indicates the mismatches between the mouse oligonucleotide and the human mRNA sequence.

murine Factor 11 mRNA = experiment: In vivo antisense inhibition of murine Factor 11 mRNA in liver (Example 10); conditions: BALB/c mice, relative to PBS control
Protocol: BALB/c mice were injected with 5 mg/kg, 10 mg/kg, 25 mg/kg, or 50 mg/kg of ISIS 404057 or ISIS 404071 twice a week for 3 weeks. A control group of mice was injected with phosphate buffered saline (PBS) twice a week for 3 weeks. Mice were sacrificed 5 days after receiving the last dose. Whole liver was harvested for RNA analysis and plasma was collected for clotting analysis (PT and aPTT) and protein analysis.
RNA was extracted from liver tissue for real-time PCR analysis of Factor 11. […] Results are presented as percent inhibition of Factor 11, relative to control.

[1] = rat, in vivo, sc, 50 mg/kg
[2] = rat, in vivo, sc, 50 mg/kg; remark: listed apart in the source
[3] = rat, in vivo, sc, 50 mg/kg; remark: listed apart in the source
[4] = mouse, in vivo, sc, 50 mg/kg
[5] = mouse, in vivo, sc, 50 mg/kg; remark: listed apart in the source
[6] = mouse, in vivo, sc, 50 mg/kg; remark: listed apart in the source
[7] = 5 mg/kg twice a week for 3 weeks
[8] = 10 mg/kg twice a week for 3 weeks
[9] = 25 mg/kg twice a week for 3 weeks
[10] = 50 mg/kg twice a week for 3 weeks

With “404054 (eT*eA*eG*eT*eT*d[5mC]*dA*dT*dG*d[5mC]*d[5mC]*d[5mC]*dT*dT*d[5mC]*eA*eT*eG*eT*e[5mC]; antisense) [compound 404054]” the “% Inhibition of mouse Factor 11 mRNA levels” value (mouse Factor 11 mRNA) was 45%.

For “404055 (eT*eG*eT*eT*eA*dT*dA*dG*dT*dT*d[5mC]*dA*dT*dG*d[5mC]*e[5mC]*e[5mC]*eT*eT*e[5mC]; antisense) [compound 404055]”, the “% Inhibition of mouse Factor 11 mRNA levels” value (mouse Factor 11 mRNA) was 27%.

In the case of “404057 (eT*e[5mC]*e[5mC]*eT*eG*dG*d[5mC]*dA*dT*dT*d[5mC]*dT*d[5mC]*dG*dA*eG*e[5mC]*eA*eT*eT) [compound 404057]”, the “% inhibition of murine Factor 11 mRNA” value (murine Factor 11 mRNA; [7]) is reported as 40%, the “% inhibition of murine Factor 11 mRNA” value (murine Factor 11 mRNA; [8]) is reported as 64% and the “% inhibition of murine Factor 11 mRNA” value (murine Factor 11 mRNA; [9]) is reported as 85%. For the same substance, the “% inhibition of murine Factor 11 mRNA” value (murine Factor 11 mRNA; [10]) was 95%.

For “404066 (eA*eA*eT*eG*eT*d[5mC]*d[5mC]*d[5mC]*dT*dG*dA*dT*dA*d[5mC]*dA*eA*eG*e[5mC]*e[5mC]*eA; antisense) [compound 404066]”, the “% Inhibition of mouse Factor 11 mRNA levels” value (mouse Factor 11 mRNA) was 37%.

In the case of “404067 (antisense eG*eG*eG*eA*eA*dA*dA*dT*dG*dT*d[5mC]*d[5mC]*d[5mC]*dT*dG*eA*eT*eA*e[5mC]*eA) [compound 404067]”, the “% Inhibition of mouse Factor 11 mRNA levels” value (mouse Factor 11 mRNA) is reported as 39%.

In the case of “404071 (antisense eT*eG*eG*eT*eA*dA*dT*d[5mC]*d[5mC]*dA*d[5mC]*dT*dT*dT*d[5mC]*eA*eG*eA*eG*eG) [compound 404071]”, the “% inhibition of murine Factor 11 mRNA” value (murine Factor 11 mRNA; [7]) is reported as 72%, the “% inhibition of murine Factor 11 mRNA” value (murine Factor 11 mRNA; [8]) is reported as 82% and the “% inhibition of murine Factor 11 mRNA” value (murine Factor 11 mRNA; [9]) is reported as 93%. For the same substance, the “% inhibition of murine Factor 11 mRNA” value (murine Factor 11 mRNA; [10]) was 96%.

In the case of “404083 (antisense eT*eG*eT*eG*e[5mC]*dA*dG*dA*dG*dT*d[5mC]*dA*d[5mC]*d[5mC]*dT*eG*e[5mC]*e[5mC]*eA*eT) [compound 404083]”, the “% Inhibition of mouse Factor 11 mRNA levels” value (mouse Factor 11 mRNA) is reported as 47%.

For “404087 (antisense eT*eT*e[5mC]*eT*eT*dG*dA*dA*d[5mC]*d[5mC]*d[5mC]*dT*dG*dA*dA*eG*eA*eA*eA*eG) [compound 404087]”, the “% Inhibition of mouse Factor 11 mRNA levels” value (mouse Factor 11 mRNA) was 29%.

With “404089 (antisense eT*eG*eA*eA*eT*dT*dA*dT*d[5mC]*dA*dT*dT*dT*d[5mC]*dT*eT*eG*eA*eA*e[5mC]) [compound 404089]” the “% Inhibition of mouse Factor 11 mRNA levels” value (mouse Factor 11 mRNA) was 6%.

For “404090 (antisense eT*eG*eA*eT*e[5mC]*dA*dT*dG*dA*dA*dT*dT*dA*dT*d[5mC]*eA*eT*eT*eT*e[5mC]) [compound 404090]”, the “% Inhibition of mouse Factor 11 mRNA levels” value (mouse Factor 11 mRNA) was 42%.

“ISIS 445498: 5-8-5 or 6-8-6 MOE microwalk gapmer (Table 44) (antisense GGTGCACAGTTTCTGGCAGG; sugars from the 5' end e6 d8 e6, backbone and methylation of C not given here)” gave a BUN [1] of 25 mg/dL, a Creatinine [1] of 0.5 mg/dL and a Urine protein/creatinine ratio [1] of 3.1. For the same substance, the ALT [2] was 417 IU/L, the AST [2] was 124 IU/L and the Albumin [2] was 3.7. It also gave a Bilirubin [2] of 0.14 mg/dL, an HCT [3] of 49% and a Lymphocyte [3] of 89%. For the same substance, the Neutrophil [3] was 9%, the Platelets [3] was 1061 nL⁻¹ and the RBC [3] was 8.5 pL⁻¹. For the same substance, the WBC [3] was 13 nL⁻¹, the hemoglobin [3] was 14.7 g/dL and the monocytes [3] was 2.0%. It also gave an HCT [4] of 47%, a Lymphocyte [4] of 3241 and a Neutrophil [4] of 1197. For the same substance, the Platelets [4] was 802, the RBC [4] was 9.4 and the WBC [4] was 5. For the same substance, the hemoglobin [4] was 13.9 g/dL, the BUN [5] was 28 mg/dL and the ALT [6] was 66 IU/L. It also gave an AST [6] of 102 IU/L, an Albumin [6] of 3.4 and a Bilirubin [6] of 0.24 mg/dL.

“ISIS 445503: 5-8-5 or 6-8-6 MOE microwalk gapmer (Table 44) (antisense GCATTGGTGCACAGTTTCTG; sugars from the 5' end e6 d8 e6, backbone and methylation of C not given here)” gave an HCT [4] of 46%, a Lymphocyte [4] of 6436 and a Neutrophil [4] of 1475. The Platelets [4] was 309, the RBC [4] was 9.2 and the WBC [4] was 8. For the same substance, the hemoglobin [4] was 13.6 g/dL, the BUN [5] was 29 mg/dL and the ALT [6] was 1314 IU/L. It also gave an AST [6] of 852 IU/L, an Albumin [6] of 3.4 and a Bilirubin [6] of 0.28 mg/dL.

“ISIS 445504: 5-8-5 or 6-8-6 MOE microwalk gapmer (Table 44) (antisense GGCATTGGTGCACAGTTTCT; sugars from the 5' end e6 d8 e6, backbone and methylation of C not given here)” showed a BUN [1] of 26 mg/dL, a Creatinine [1] of 0.4 mg/dL and a Urine protein/creatinine ratio [1] of 4.3. It also gave an ALT [2] of 206 IU/L, an AST [2] of 86 IU/L and an Albumin [2] of 3.5. For the same substance, the Bilirubin [2] was 0.11 mg/dL, the HCT [3] was 50% and the Lymphocyte [3] was 87%. For the same substance, the Neutrophil [3] was 10%, the Platelets [3] was 776 nL⁻¹ and the RBC [3] was 8.9 pL⁻¹. It also gave a WBC [3] of 16 nL⁻¹, a hemoglobin [3] of 14.7 g/dL and a monocytes [3] of 2.0%. For the same substance, the HCT [4] was 49%, the Lymphocyte [4] was 3578 and the Neutrophil [4] was 959. For the same substance, the Platelets [4] was 826, the RBC [4] was 9.6 and the WBC [4] was 5. The hemoglobin [4] was 14.7 g/dL, the BUN [5] was 29 mg/dL and the ALT [6] was 71 IU/L. For the same substance, the AST [6] was 107 IU/L, the Albumin [6] was 3.4 and the Bilirubin [6] was 0.17 mg/dL.

For “ISIS 445505: 5-8-5 or 6-8-6 MOE microwalk gapmer (Table 44) (antisense CGGCATTGGTGCACAGTTTC; sugars from the 5' end e6 d8 e6, backbone and methylation of C not given here)”, the BUN [1] was 24 mg/dL, the Creatinine [1] was 0.4 mg/dL and the Urine protein/creatinine ratio [1] was 3.8. The ALT [2] was 356 IU/L, the AST [2] was 243 IU/L and the Albumin [2] was 3.6. The Bilirubin [2] was 0.15 mg/dL, the HCT [3] was 50% and the Lymphocyte [3] was 87%. For the same substance, the Neutrophil [3] was 10%, the Platelets [3] was 1089 nL⁻¹ and the RBC [3] was 9.1 pL⁻¹. For the same substance, the WBC [3] was 21 nL⁻¹, the hemoglobin [3] was 15.0 g/dL and the monocytes [3] was 2.5%. The HCT [4] was 49%, the Lymphocyte [4] was 3447 and the Neutrophil [4] was 818. The Platelets [4] was 725, the RBC [4] was 9.6 and the WBC [4] was 5. It also gave a hemoglobin [4] of 14.6 g/dL, a BUN [5] of 29 mg/dL and an ALT [6] of 116 IU/L. It also gave an AST [6] of 153 IU/L, an Albumin [6] of 3.2 and a Bilirubin [6] of 0.18 mg/dL.

In the case of “ISIS 445532: 5-8-5 or 6-8-6 MOE microwalk gapmer (Table 44) (antisense CGGCATTGGTGCACAGTT; sugars from the 5' end e5 d8 e5, backbone and methylation of C not given here)”, the HCT [4] is reported as 48%, the Lymphocyte [4] is reported as 5490 and the Neutrophil [4] is reported as 1116. It also gave a Platelets [4] of 689, an RBC [4] of 9.7 and a WBC [4] of 7. For the same substance, the hemoglobin [4] was 14.8 g/dL, the BUN [5] was 23 mg/dL and the ALT [6] was 395 IU/L. For the same substance, the AST [6] was 360 IU/L, the Albumin [6] was 2.9 and the Bilirubin [6] was 0.20 mg/dL.
